According to ChEMBL document CHEMBL3885881, “DrugMatrix”:

Species: Rattus norvegicus
Experiment: DrugMatrix - Regimen: Daily Repeat
Type: toxicity, organism-based, Sprague-Dawley
Parameters: regimen Daily Repeat, gender Male, age 6-8 weeks
Details: in vivo, po, route oral GAVAGE, vehicle 100 % WATER; for ABSOLUTE BASOPHIL / ABSOLUTE EOSINOPHIL / ABSOLUTE LYMPHOCYTE / ABSOLUTE MONOCYTE / ABSOLUTE SEGMENTED NEUTROPHIL / BASOPHIL / EOSINOPHIL / ERYTHROCYTE COUNT / HEMATOCRIT / HEMOGLOBIN / LEUKOCYTE COUNT / LYMPHOCYTE / MEAN CORPUSCULAR HEMOGLOBIN / MEAN CORPUSCULAR HEMOGLOBIN CONCENTRATION / MEAN CORPUSCULAR VOLUME / MONOCYTE / NEUTROPHIL / NUCLEATED RED BLOOD CELLS / PLATELET COUNT: tissue Blood; for ALANINE AMINOTRANSFERASE / ALBUMIN / ALKALINE PHOSPHATASE / ASPARTATE AMINOTRANSFERASE / BLOOD UREA NITROGEN / CARBON DIOXIDE / CHLORIDE / CHOLESTEROL / CREATINE PHOSPHOKINASE / CREATININE / GLUCOSE / LACTATE DEHYDROGENASE / LIPASE / PHOSPHORUS / POTASSIUM / SODIUM / TOTAL BILIRUBIN / TOTAL PROTEIN / URIC ACID: tissue Plasma
[1] = 0 mg/kg, 72 h, dose level Control, time 3 day
[2] = 0 mg/kg, 120 h, dose level Control, time 5 day
[3] = 10 mg/kg, 72 h, dose level Low, time 3 day

## CCN(CC)CC#CCOC(=O)C(O)(c1ccccc1)C1CCCCC1 (centres undefined) [OXYBUTYNIN]
[1]
  ABSOLUTE BASOPHIL: 0 CELLS/uL
  ABSOLUTE EOSINOPHIL: 24 CELLS/uL
  ABSOLUTE LYMPHOCYTE: 13105 CELLS/uL
  ABSOLUTE MONOCYTE: 76 CELLS/uL
  ABSOLUTE SEGMENTED NEUTROPHIL: 2145 CELLS/uL
  BASOPHIL: 0%
  EOSINOPHIL: 0.17%
  ERYTHROCYTE COUNT: 5.81 x10E6/uL
  HEMATOCRIT: 35.6%
  HEMOGLOBIN: 13.72 G/DL
  LEUKOCYTE COUNT: 15.35 x10E3/uL
  LYMPHOCYTE: 85.5%
  MEAN CORPUSCULAR HEMOGLOBIN: 23.62 pg
  MEAN CORPUSCULAR HEMOGLOBIN CONCENTRATION: 38.55 G/DL
  MEAN CORPUSCULAR VOLUME: 61.23 fL
  MONOCYTE: 0.5%
  NEUTROPHIL: 13.83%
  NUCLEATED RED BLOOD CELLS: 0 /100WBC
  PLATELET COUNT: 1189.83 x10E3/uL
  ALANINE AMINOTRANSFERASE: 48.67 u/L
  ALBUMIN: 4.27 G/DL
  ALKALINE PHOSPHATASE: 335 u/L
  ASPARTATE AMINOTRANSFERASE: 86.5 u/L
  BLOOD UREA NITROGEN: 14.33 mg/dL
  CARBON DIOXIDE: 29.17 mmol/L
  CHLORIDE: 99.83 MEQ/L
  CHOLESTEROL: 71.83 mg/dL
  CREATINE PHOSPHOKINASE: 506.83 u/L
  CREATININE: 0.18 mg/dL
  GLUCOSE: 162.17 mg/dL
  LACTATE DEHYDROGENASE: 264.5 u/L
  LIPASE: 9.67 u/L
  PHOSPHORUS: 11.92 mg/dL
  POTASSIUM: 6.55 MEQ/L
  SODIUM: 141.53 MEQ/L
  TOTAL BILIRUBIN: 0.18 mg/dL
  TOTAL PROTEIN: 5.87 G/DL
  URIC ACID: 1.67 mg/dL
[2]
  ABSOLUTE BASOPHIL: 0 CELLS/uL
  ABSOLUTE EOSINOPHIL: 25.33 CELLS/uL
  ABSOLUTE LYMPHOCYTE: 15680 CELLS/uL
  ABSOLUTE MONOCYTE: 92.33 CELLS/uL
  ABSOLUTE SEGMENTED NEUTROPHIL: 2102.33 CELLS/uL
  BASOPHIL: 0%
  EOSINOPHIL: 0.17%
  ERYTHROCYTE COUNT: 6 x10E6/uL
  HEMATOCRIT: 35.55%
  HEMOGLOBIN: 14.12 G/DL
  LEUKOCYTE COUNT: 17.9 x10E3/uL
  LYMPHOCYTE: 87.33%
  MEAN CORPUSCULAR HEMOGLOBIN: 23.65 pg
  MEAN CORPUSCULAR HEMOGLOBIN CONCENTRATION: 39.77 G/DL
  MEAN CORPUSCULAR VOLUME: 59.52 fL
  MONOCYTE: 0.5%
  NEUTROPHIL: 12%
  NUCLEATED RED BLOOD CELLS: 0.17 /100WBC
  PLATELET COUNT: 1325.67 x10E3/uL
  ALANINE AMINOTRANSFERASE: 56.17 u/L
  ALBUMIN: 4.23 G/DL
  ALKALINE PHOSPHATASE: 371.5 u/L
  ASPARTATE AMINOTRANSFERASE: 91 u/L
  BLOOD UREA NITROGEN: 15.33 mg/dL
  CARBON DIOXIDE: 27.67 mmol/L
  CHLORIDE: 99.5 MEQ/L
  CHOLESTEROL: 66.5 mg/dL
  CREATINE PHOSPHOKINASE: 518.5 u/L
  CREATININE: 0.18 mg/dL
  GLUCOSE: 143.33 mg/dL
  LACTATE DEHYDROGENASE: 238.83 u/L
  LIPASE: 9.33 u/L
  PHOSPHORUS: 10.68 mg/dL
  POTASSIUM: 6.5 MEQ/L
  SODIUM: 141.88 MEQ/L
  TOTAL BILIRUBIN: 0.18 mg/dL
  TOTAL PROTEIN: 6 G/DL
  URIC ACID: 1.63 mg/dL
[3]
  ABSOLUTE BASOPHIL: 0 CELLS/uL
  ABSOLUTE EOSINOPHIL: 0 CELLS/uL
  ABSOLUTE LYMPHOCYTE: 11373.67 CELLS/uL
  ABSOLUTE MONOCYTE: 168.67 CELLS/uL
  ABSOLUTE SEGMENTED NEUTROPHIL: 2324.33 CELLS/uL
  BASOPHIL: 0%
  EOSINOPHIL: 0%
  ERYTHROCYTE COUNT: 5.85 x10E6/uL
  HEMATOCRIT: 35.5%
  HEMOGLOBIN: 13.87 G/DL
  LEUKOCYTE COUNT: 13.87 x10E3/uL
  LYMPHOCYTE: 82.33%
  MEAN CORPUSCULAR HEMOGLOBIN: 23.77 pg
  MEAN CORPUSCULAR HEMOGLOBIN CONCENTRATION: 39.1 G/DL
  MEAN CORPUSCULAR VOLUME: 60.83 fL
  MONOCYTE: 1.33%
  NEUTROPHIL: 16.33%
  NUCLEATED RED BLOOD CELLS: 0 /100WBC
  PLATELET COUNT: 1157.33 x10E3/uL
  ALANINE AMINOTRANSFERASE: 50 u/L
  ALBUMIN: 4.03 G/DL
  ALKALINE PHOSPHATASE: 314.33 u/L
  ASPARTATE AMINOTRANSFERASE: 86 u/L
  BLOOD UREA NITROGEN: 13.67 mg/dL
  CARBON DIOXIDE: 28.33 mmol/L
  CHLORIDE: 99.33 MEQ/L
  CHOLESTEROL: 57.67 mg/dL
  CREATINE PHOSPHOKINASE: 426.33 u/L
  CREATININE: 0.12 mg/dL
  GLUCOSE: 150.67 mg/dL
  LACTATE DEHYDROGENASE: 120 u/L
  LIPASE: 9 u/L
  PHOSPHORUS: 12.43 mg/dL
  POTASSIUM: 6.97 MEQ/L
  SODIUM: 141.47 MEQ/L
  TOTAL BILIRUBIN: 0.17 mg/dL
  TOTAL PROTEIN: 5.57 G/DL
  URIC ACID: 1.97 mg/dL
